This is an account of results in patent publication US10428030B2, “Heterocycle derivatives and their use for the treatment of CNS disorders” (Trillium Therapeutics Inc., priority 2015, dated 2019).

Data set [1] can be described thus: Fixed speed rotorod, gross motor function (rat). The note with it: male, Sprague-Dawley, in vivo, po. The protocol:
On the test day following a defined drug pretreatment period, rats received a maximal electroshock (150 mA, 0.2 s duration, 60 Hz) via corneal electrodes. Protection was defined as absence of a full tonic seizure within 10 s of stimulus delivery. Twenty minutes before the MES procedure, the animals were tested on a fixed speed rotorod (best score from 3 trials at 8 r.p.m, trial duration=60 s) to give an early assessment of drug effect on gross motor function.

Data set [2] can be described thus: Rotorod (ip), mouse. Conditions: in vivo, mice.
The subject of data set [3] is mice. As to the kind of experiment: Intravenous Metrazol Seizure Threshold Test (i.v. MET). It is filed as in vivo. Conditions: mouse, ip, i.v. Metrazol infusion (FIG. 1). The protocol: The iv-Met test provides a measure of a test substance's ability to raise or lower seizure threshold. Two doses of the test compound are usually employed in this test, the MES ED50 and the TD50 determined following ip quantification testing in mice. Randomly selected mice are injected intraperitoneally 2 minutes apart with either the vehicle or the two test drug doses, maintaining the same order of dosing until 30 mice have been injected. At the previously determined TPE, 0.5% heparinized Metrazol solution is infused at a constant rate of 0.34 ml/min into a lateral tail vein of an unrestrained mouse. Infusion is by means of a Sage syringe pump (model 341 A) and a 10 ml B-D plastic syringe connected to a length of No 20 P.E. tubing. A 27 gauge stainless steel needle with the hub removed is connected to the tubing and inserted into a vein, bevel side up and secured to the tail by a narrow piece of adhesive tape. For the placement of the needle, the mouse is restrained in a cone shaped device with only the tail exposed. The rate selector is set on 4, and the switch is set at ml/min. […] The time in seconds from the start of the infusion to the appearance of the “first twitch” and the onset of sustained clonus is recorded. […]
The mean and standard error for each of the 3 groups and the significance of the difference between the test groups and the control are calculated.

The subject of data set [4] is MTLE mice. As to the kind of experiment: Model of mesial temporal lobe epilepsy (mTLE), hippocampal paroxysmal discharges. It is filed as in vivo, mouse. The note with it: for Effect (% baseline): HPD; for Effect (% baseline) / Mean HPD Counts: mice 4 weeks after intra-hippocampal KA. From the text:
The MTLE mouse model recapitulates many of the characteristics observed in human patients with temporal lobe epilepsy (TLE). The MTLE mouse is characterized by an initial neurotoxic event, a unilateral intrahippocampal injection of kainic acid (KA) into the dorsal hippocampus, which induces non-convulsive SE lasting several hours. This initial event is followed by a latent phase. Two to three weeks after KA injection, spontaneous recurrent hippocampal paroxysmal discharges (HPD) are only recorded in the epileptic hippocampus and remain stable and stereotyped for the whole life of the animal. These HPDs occur spontaneously about 30-60 times per hour when the animals are in a state of quiet wakefulness, generally last 15-20 sec and are associated with behavioral arrest and/or mild motor automatisms. Adult, male […] mice are stereotaxically injected with kainate (1 nmol in 100 nL) and implanted with 1 bipolar electrode in the dorsal hippocampus, and then allowed to recover for four weeks prior to evaluation in the screening protocol. Using a group size of 4 MTLE mice per dose of investigational compound, the compounds are typically first tested using the 6 Hz 44 mA ED50 value. […] For all acute studies, drug conditions are counter-balanced in MTLE mice over a two week period using a Latin square dosing protocol. Animals are used as their own controls. Digital EEG recordings are performed on freely moving animals for 20 minutes pre-injection (reference period) and 90 minutes post-injection. Data are analyzed for the period of 10 minutes before and 10 minutes after peak time of effect of the investigational compound, as determined from the 6 Hz 44 mA seizure test. The effects of the injected compound are compared to the reference period. Any accompanying effect on animal behavior is noted. Data are presented as the raw number of HPDs during the analyzed 20 min period (10 minutes before and 10 minutes after peak time of effect of compound) for each MTLE mouse, group mean number of HPDs, and effect on suppression as represented by percent of baseline HPD values.

Data set [5] has as its system male CF-1 mouse. Description: Mouse formalin test (pain). Format: in vivo. The note with it: 41 mg/kg i.p.; most pronounced in second (late) phase. The protocol:
The formalin test is performed according to the method of Tjolsen et al. Pain, 1992. 51(1). An injection of 0.5% formalin (Sigma) is made into the planter region of the right hind paw of an adult (26-30 g) male CF-1 mouse. Sub-dermal formalin injection elicits a distinct behavioral profile characterized by the mouse licking the affected paw. The behavior is characteristically biphasic in nature. For example, immediately following the injection the mouse licks the paw intensely for approximately 10 min. This is referred to as phase 1 (or, the acute phase) and is followed by a brief latent period (<5 minutes) where there is little behavioral activity. A more prolonged period of about 20-30 min of activity then ensues, which constitutes phase 2 (or, the inflammatory phase). […] The cumulative length of licking for each 2-min time period is measured. […] The area under the curve (AUG) is calculated for both the acute and inflammatory phases of the licking response for individual animals in both the test and control groups. The percent of control AUG for drug-treated animal groups is determined using the Graph-Pad Prism Version 3.03. The total AUG for each phase of the test group is also calculated and converted to percentage of total AUG of control for each phase. The average and S.E.M. for both the drug treated and control percentages are calculated and tested for significant difference.

In turn, `O=C1COc2cc(OCc3ccc(OC(F)F)cc3)ccc2N1` [Compound I(B)] had an ED50 at 4 hours in data set [1] of over 500 mg/kg. The ED50 at 0.5 hours in data set [2] is over 500 mg/kg. The “effect on seizure threshold” value in data set [3] is “dose-dependently increased the seizure threshold”. Moreover, in data set [4] (after 80 mg/kg), the “Effect (% baseline)” value is given as 42.0 % baseline and the “Mean HPD Counts” value came to 7.25. Also, in data set [4] (after 160 mg/kg), the “Effect (% baseline)” value came to 17.9 % baseline and the “Mean HPD Counts” value worked out at 4.25. The “effect against spontaneous recurrent hippocampal paroxysmal discharges (HPD)” value in data set [4] (dose of 125 mg/kg) was “effective”. Also, the “number of paw licks” value in data set [5] is reported as “significant decrease in the number of paw licks”.
